Experimental data published in PubChem BioAssay AID2060511 (Molecular Pharmacology Branch, DTP, NCI, 2025).

System: 422866-222-R5-J1-PDC spheroids with HUVEC/MSC, viability
Assay: Anticancer human tumor 422866-222-R5-J1-PDC patient-derived pancreatic adenocarcinoma cell line growth inhibition [GQUAD]
Settings: for IC50: curve of first compound; for viability, T/C: stronger effect = lower value
Summary of the method: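 Viability of tumor cells grown as complex spheroids with endothelial and stromal cells, exposed to drug combinations. Top concentration at or near clinical Cmax (else 10 microM), diluted in half-log increments.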

[1] = second compound 0.0316 µM, first compound 0.0316 µM
[2] = second compound 0.0316 µM, first compound 0.1 µM
[3] = second compound 0.0316 µM, first compound 0.316 µM
[4] = second compound 0.0316 µM, first compound 1 µM
[5] = second compound 0.0316 µM, first compound 3.16 µM
[6] = second compound 0.0316 µM, first compound 10 µM
[7] = second compound 0.1 µM, first compound 0.0316 µM
[8] = second compound 0.1 µM, first compound 0.1 µM
[9] = second compound 0.1 µM, first compound 0.316 µM
[10] = second compound 0.1 µM, first compound 1 µM
[11] = second compound 0.1 µM, first compound 3.16 µM
[12] = second compound 0.1 µM, first compound 10 µM
[13] = second compound 0.316 µM, first compound 0.0316 µM
[14] = second compound 0.316 µM, first compound 0.1 µM
[15] = second compound 0.316 µM, first compound 0.316 µM
[16] = second compound 0.316 µM, first compound 1 µM
[17] = second compound 0.316 µM, first compound 3.16 µM
[18] = second compound 0.316 µM, first compound 10 µM
[19] = second compound 1 µM, first compound 0.0316 µM
[20] = second compound 1 µM, first compound 0.1 µM
[21] = second compound 1 µM, first compound 0.316 µM
[22] = second compound 1 µM, first compound 1 µM
[23] = second compound 1 µM, first compound 3.16 µM
[24] = second compound 1 µM, first compound 10 µM
[25] = second compound 3.16 µM, first compound 0.0316 µM
[26] = second compound 3.16 µM, first compound 0.1 µM
[27] = second compound 3.16 µM, first compound 0.316 µM
[28] = second compound 3.16 µM, first compound 1 µM
[29] = second compound 3.16 µM, first compound 3.16 µM
[30] = second compound 3.16 µM, first compound 10 µM
[31] = second compound 10 µM, first compound 0.0316 µM
[32] = second compound 10 µM, first compound 0.1 µM
[33] = second compound 10 µM, first compound 0.316 µM
[34] = second compound 10 µM, first compound 1 µM
[35] = second compound 10 µM, first compound 3.16 µM
[36] = second compound 10 µM, first compound 10 µM
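Further: spheroids exposed to compounds for seven days before reading.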
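Wherever viability, T/C is given: percent viability relative to DMSO vehicle control taken as 100%.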

CC(C)n1c(=O)n(C)c2cnc3cc(F)c(-c4ccc(OCCCN5CCCCC5)nc4)cc3c21 + Cc1[nH]c2ccc(F)cc2c1-c1nc2c3cccnc3c3ncccc3c2[nH]1
IC50 (second compound 0.0316 µM): > 10 µM | IC50 (second compound 0.1 µM): > 10 µM | IC50 (second compound 0.316 µM): > 10 µM | IC50 (second compound 1 µM): > 10 µM | IC50 (second compound 3.16 µM): > 10 µM | IC50 (second compound 10 µM): > 10 µM | viability, T/C [1]: 86.9% | viability, T/C [2]: 99.4% | viability, T/C [3]: 94% | viability, T/C [4]: 91.1% | viability, T/C [5]: 89.2% | viability, T/C [6]: 52% | viability, T/C [7]: 99.4% | viability, T/C [8]: 114% | viability, T/C [9]: 112% | viability, T/C [10]: 83.2% | viability, T/C [11]: 113% | viability, T/C [12]: 73.5% | viability, T/C [13]: 93.8% | viability, T/C [14]: 90.6% | viability, T/C [15]: 102% | viability, T/C [16]: 92.1% | viability, T/C [17]: 92.2% | viability, T/C [18]: 68.5% | viability, T/C [19]: 95.4% | viability, T/C [20]: 89.2% | viability, T/C [21]: 91.3% | viability, T/C [22]: 91.9% | viability, T/C [23]: 117% | viability, T/C [24]: 64.9% | viability, T/C [25]: 78.3% | viability, T/C [26]: 88.2% | viability, T/C [27]: 105% | viability, T/C [28]: 94.7% | viability, T/C [29]: 98% | viability, T/C [30]: 63.9% | viability, T/C [31]: 73% | viability, T/C [32]: 95.1% | viability, T/C [33]: 91.7% | viability, T/C [34]: 80.9% | viability, T/C [35]: 85.2% | viability, T/C [36]: 54.5%

CC1COCCN1c1cc(C2(O)CC3CCC(C2)O3)c2cnn(-c3ccn[nH]3)c2n1 (stereo not drawn) + Cc1[nH]c2ccc(F)cc2c1-c1nc2c3cccnc3c3ncccc3c2[nH]1
IC50 (second compound 0.0316 µM): 0.0316 µM | IC50 (second compound 0.1 µM): > 10 µM | IC50 (second compound 0.316 µM): > 10 µM | IC50 (second compound 1 µM): > 10 µM | IC50 (second compound 3.16 µM): < 0.0316 µM | IC50 (second compound 10 µM): > 10 µM | viability, T/C [1]: 74.6% | viability, T/C [2]: 47.4% | viability, T/C [3]: 48.1% | viability, T/C [4]: 48% | viability, T/C [5]: 87.5% | viability, T/C [6]: 92% | viability, T/C [7]: 73.3% | viability, T/C [8]: 55.9% | viability, T/C [9]: 42.1% | viability, T/C [10]: 62.2% | viability, T/C [11]: 88% | viability, T/C [12]: 90.3% | viability, T/C [13]: 85.4% | viability, T/C [14]: 52.6% | viability, T/C [15]: 37.4% | viability, T/C [16]: 79.1% | viability, T/C [17]: 97.1% | viability, T/C [18]: 109% | viability, T/C [19]: 70.4% | viability, T/C [20]: 39.1% | viability, T/C [21]: 44.1% | viability, T/C [22]: 79.9% | viability, T/C [23]: 98.2% | viability, T/C [24]: 114% | viability, T/C [25]: 51.7% | viability, T/C [26]: 43.8% | viability, T/C [27]: 49.8% | viability, T/C [28]: 82.9% | viability, T/C [29]: 90.8% | viability, T/C [30]: 90.8% | viability, T/C [31]: 54.7% | viability, T/C [32]: 47.8% | viability, T/C [33]: 51.2% | viability, T/C [34]: 85.4% | viability, T/C [35]: 84.5% | viability, T/C [36]: 90.8%

Cc1cccc(N(C)C(=O)C2C(O)CCN2c2nc(C)cc(C(F)(F)F)c2C#N)c1 (stereo not drawn) + Cc1[nH]c2ccc(F)cc2c1-c1nc2c3cccnc3c3ncccc3c2[nH]1
IC50 (second compound 0.0316 µM): > 10 µM | IC50 (second compound 0.1 µM): > 10 µM | IC50 (second compound 0.316 µM): > 10 µM | IC50 (second compound 1 µM): > 10 µM | IC50 (second compound 3.16 µM): > 10 µM | IC50 (second compound 10 µM): > 10 µM | viability, T/C [1]: 107% | viability, T/C [2]: 95.2% | viability, T/C [3]: 102% | viability, T/C [4]: 79.5% | viability, T/C [5]: 116% | viability, T/C [6]: 108% | viability, T/C [7]: 88.8% | viability, T/C [8]: 92.2% | viability, T/C [9]: 116% | viability, T/C [10]: 82.8% | viability, T/C [11]: 99.9% | viability, T/C [12]: 107% | viability, T/C [13]: 89.9% | viability, T/C [14]: 92.9% | viability, T/C [15]: 97.4% | viability, T/C [16]: 98.3% | viability, T/C [17]: 115% | viability, T/C [18]: 114% | viability, T/C [19]: 92.7% | viability, T/C [20]: 101% | viability, T/C [21]: 111% | viability, T/C [22]: 103% | viability, T/C [23]: 120% | viability, T/C [24]: 93.1% | viability, T/C [25]: 80.2% | viability, T/C [26]: 96.1% | viability, T/C [27]: 89.6% | viability, T/C [28]: 84.1% | viability, T/C [29]: 104% | viability, T/C [30]: 96.4% | viability, T/C [31]: 82.5% | viability, T/C [32]: 86.8% | viability, T/C [33]: 100% | viability, T/C [34]: 86.9% | viability, T/C [35]: 90.1% | viability, T/C [36]: 96.9%

Cn1ncnc1[C@H]1c2n[nH]c(=O)c3cc(F)cc(c23)N[C@@H]1c1ccc(F)cc1 + Cc1[nH]c2ccc(F)cc2c1-c1nc2c3cccnc3c3ncccc3c2[nH]1
IC50 (second compound 0.0316 µM): > 0.316 µM | IC50 (second compound 0.1 µM): > 0.316 µM | IC50 (second compound 0.316 µM): > 0.316 µM | IC50 (second compound 1 µM): > 0.316 µM | IC50 (second compound 3.16 µM): > 0.316 µM | IC50 (second compound 10 µM): > 0.316 µM | viability, T/C (second compound 0.0316 µM, first compound 0.000999 µM): 92.4% | viability, T/C (second compound 0.0316 µM, first compound 0.00316 µM): 92.3% | viability, T/C (second compound 0.0316 µM, first compound 0.00999 µM): 105% | viability, T/C [1]: 91.8% | viability, T/C (second compound 0.0316 µM, first compound 0.0999 µM): 86.5% | viability, T/C [3]: 81.9% | viability, T/C (second compound 0.1 µM, first compound 0.000999 µM): 99.5% | viability, T/C (second compound 0.1 µM, first compound 0.00316 µM): 102% | viability, T/C (second compound 0.1 µM, first compound 0.00999 µM): 102% | viability, T/C [7]: 89.5% | viability, T/C (second compound 0.1 µM, first compound 0.0999 µM): 97.3% | viability, T/C [9]: 86.8% | viability, T/C (second compound 0.316 µM, first compound 0.000999 µM): 105% | viability, T/C (second compound 0.316 µM, first compound 0.00316 µM): 114% | viability, T/C (second compound 0.316 µM, first compound 0.00999 µM): 83.2% | viability, T/C [13]: 91.2% | viability, T/C (second compound 0.316 µM, first compound 0.0999 µM): 91.4% | viability, T/C [15]: 97.3% | viability, T/C (second compound 1 µM, first compound 0.000999 µM): 89.6% | viability, T/C (second compound 1 µM, first compound 0.00316 µM): 109% | viability, T/C (second compound 1 µM, first compound 0.00999 µM): 104% | viability, T/C [19]: 108% | viability, T/C (second compound 1 µM, first compound 0.0999 µM): 94.3% | viability, T/C [21]: 80.8% | viability, T/C (second compound 3.16 µM, first compound 0.000999 µM): 93.1% | viability, T/C (second compound 3.16 µM, first compound 0.00316 µM): 82.8% | viability, T/C (second compound 3.16 µM, first compound 0.00999 µM): 80.4% | viability, T/C [25]: 78.8% | viability, T/C (second compound 3.16 µM, first compound 0.0999 µM): 94.3% | viability, T/C [27]: 81.9% | viability, T/C (second compound 10 µM, first compound 0.000999 µM): 87.5% | viability, T/C (second compound 10 µM, first compound 0.00316 µM): 92.7% | viability, T/C (second compound 10 µM, first compound 0.00999 µM): 87% | viability, T/C [31]: 97.7% | viability, T/C (second compound 10 µM, first compound 0.0999 µM): 81.1% | viability, T/C [33]: 71.1%
